≈ marks a conversion by molar mass, not a printed value.
Tests used:
KB = assay: Cytotoxicity against human KB cells; assay type: functional, cell-based
Plasmodium falciparum [1] = assay: Antiplasmodial activity against chloroquine-sensitive Plasmodium falciparum D6 as [3H]hypoxanthine uptake; assay type: functional, organism-based
Plasmodium falciparum [2] = assay: Antiplasmodial activity against chloroquine-resistant Plasmodium falciparum W2 as [3H]hypoxanthine uptake; assay type: functional, organism-based

Question: With COc1ccc2cc1Oc1ccc(cc1)C[C@H]1c3c(cc(O)c4c3Oc3cc5c(cc3O4)CCN(C)[C@H]5C2)CCN1C as the compound, how does the IC50 (KB) read?
Answer: 3.4 µg/mL (≈ 6.04 µM)

Question: What about the IC50 (Plasmodium falciparum [1]) of the same compound?
Answer: 0.0171 µg/mL (≈ 0.0304 µM)

Question: And the IC50 (Plasmodium falciparum [2])?
Answer: 0.063 µg/mL (≈ 0.112 µM)

Question: With COc1ccc2cc1Oc1ccc(cc1)C[C@H]1c3cc4c(cc3CCN1C)Oc1c(OC)cc3c(c1O4)[C@H](C2)N(C)CC3 as the compound, how does the IC50 (KB) read?
Answer: 5.9 µg/mL (≈ 10.2 µM)

Question: What about the IC50 (Plasmodium falciparum [1]) of the same compound?
Answer: 0.326 µg/mL (≈ 0.565 µM)

Question: And the IC50 (Plasmodium falciparum [2])?
Answer: 0.204 µg/mL (≈ 0.354 µM)

Question: Which results are given for COc1cc2c3c4c1Oc1cc5c(cc1O4)[C@H](Cc1ccc(cc1)Oc1cc(ccc1O)C[C@@H]3N(C)CC2)N(C)CC5?
Answer: IC50 (KB): 12 µg/mL (≈ 21.3 µM); IC50 (Plasmodium falciparum [1]): 0.306 µg/mL (≈ 0.544 µM); IC50 (Plasmodium falciparum [2]): 0.265 µg/mL (≈ 0.471 µM)
